Each block holds one compound with its values, some of them ahead of it. Activity calls are given as the source filed them.
Experiments:
[1] = molecular target: T1, Orexin/Hypocretin receptor type 1 (Homo sapiens, UniProt O43613); assay: Homogeneous Time Resolved Fluorescence (HTRF)-based cell-based high throughput dose response assay for antagonists of the orexin 1 receptor (OX1R; HCRTR1). [Related pubchem assays (depositor defined):AID434989, AID435008, AID463079, AID485270, AID492963, AID492964, AID492965, AID493232, AID504717, AID504718]; format: functional
T1 sequence (O43613 whole entry): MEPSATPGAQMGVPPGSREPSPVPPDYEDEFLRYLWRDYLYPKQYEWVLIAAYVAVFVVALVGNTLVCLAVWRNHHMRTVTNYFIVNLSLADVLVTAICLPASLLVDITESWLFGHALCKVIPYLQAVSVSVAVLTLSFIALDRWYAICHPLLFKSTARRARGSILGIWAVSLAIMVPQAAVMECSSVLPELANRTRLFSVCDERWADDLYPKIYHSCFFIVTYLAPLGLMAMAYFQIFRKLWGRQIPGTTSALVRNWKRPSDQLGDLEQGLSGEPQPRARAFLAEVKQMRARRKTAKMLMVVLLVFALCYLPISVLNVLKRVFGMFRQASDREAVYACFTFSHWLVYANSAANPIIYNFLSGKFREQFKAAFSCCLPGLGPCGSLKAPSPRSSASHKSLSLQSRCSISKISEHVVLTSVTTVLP

[2] = Luminescence Cell-Based Dose Confirmation HTS to Identify Inhibitors of Platelet Dense Granule Release. [Related pubchem assays: 1663 (Primary HTS), 1678 (Summary of Project)]; format: functional
CHO-K1 = assay: (§1) Counterscreen for antagonists of the orexin 1 receptor (OX1R; HCRTR1): Homogeneous time resolved fluorescence (HTRF)-based cell-based dose response assay to identify antagonists of the parental CHO-K1 cell line. [Related pubchem assays (depositor defined):AID434989, AID435008, AID463079, AID485270, AID492963, AID492964, AID492965, AID493232, AID504699, AID504701]; format: functional; conditions: Cricetulus griseus
[3] = molecular target: Luciferin 4-monooxygenase (Photinus pyralis, UniProt P08659); assay: firefly luciferase enzyme inhibitors, dose response, biochemical, luminescence (AID 1891)
Luciferin 4-monooxygenase, sequence (P08659 whole entry): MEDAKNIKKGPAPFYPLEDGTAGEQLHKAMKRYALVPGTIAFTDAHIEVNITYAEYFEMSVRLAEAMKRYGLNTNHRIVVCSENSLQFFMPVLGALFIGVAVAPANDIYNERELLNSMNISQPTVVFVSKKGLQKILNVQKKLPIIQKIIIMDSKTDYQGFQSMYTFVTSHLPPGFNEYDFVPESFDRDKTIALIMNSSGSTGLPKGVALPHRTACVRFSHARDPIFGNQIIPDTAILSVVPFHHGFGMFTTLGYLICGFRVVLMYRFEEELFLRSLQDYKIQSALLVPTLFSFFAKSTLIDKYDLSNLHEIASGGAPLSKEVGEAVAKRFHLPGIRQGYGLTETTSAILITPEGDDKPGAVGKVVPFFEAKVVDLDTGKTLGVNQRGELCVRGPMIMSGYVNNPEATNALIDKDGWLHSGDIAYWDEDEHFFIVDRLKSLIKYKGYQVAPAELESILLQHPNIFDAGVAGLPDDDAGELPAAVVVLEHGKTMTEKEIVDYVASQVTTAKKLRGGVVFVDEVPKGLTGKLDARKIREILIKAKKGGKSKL

[4] = as §1, with “Fluorescence-based” for “Homogeneous time resolved fluorescence (HTRF)-based”, “cell-based high throughput” for “cell-based”, “CHO” for “CHO-K1”; format: functional
[5] = enhancers of respiration in Yfh1-depleted yeast, dose response, Friedreich's ataxia, plus single-dose screen (AID 1465); format: functional;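 also: yeast depleted of Yfh1p frataxin homolog grown on glycerol needing respiration; WST-1 tetrazolium dye reduction as measure of cellular dehydrogenase metabolic activity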
[6] = molecular target: T1, Orexin/Hypocretin receptor type 1; assay: Fluorescence-based cell-based high throughput dose response assay for antagonists of the orexin 1 receptor (OX1R; HCRTR1). [Related pubchem assays (depositor defined):AID434989, AID435008, AID463079, AID485270, AID492963, AID492964, AID492965, AID493232, AID504717, AID504718]; format: functional
[7] = molecular target: Intestinal-type alkaline phosphatase (Homo sapiens, UniProt P09923); assay: human intestinal alkaline phosphatase activators, dose response, biochemical, luminescence, uHTS hits (AID 463120); format: functional
Intestinal-type alkaline phosphatase, sequence (P09923 whole entry, the tested form may be a part): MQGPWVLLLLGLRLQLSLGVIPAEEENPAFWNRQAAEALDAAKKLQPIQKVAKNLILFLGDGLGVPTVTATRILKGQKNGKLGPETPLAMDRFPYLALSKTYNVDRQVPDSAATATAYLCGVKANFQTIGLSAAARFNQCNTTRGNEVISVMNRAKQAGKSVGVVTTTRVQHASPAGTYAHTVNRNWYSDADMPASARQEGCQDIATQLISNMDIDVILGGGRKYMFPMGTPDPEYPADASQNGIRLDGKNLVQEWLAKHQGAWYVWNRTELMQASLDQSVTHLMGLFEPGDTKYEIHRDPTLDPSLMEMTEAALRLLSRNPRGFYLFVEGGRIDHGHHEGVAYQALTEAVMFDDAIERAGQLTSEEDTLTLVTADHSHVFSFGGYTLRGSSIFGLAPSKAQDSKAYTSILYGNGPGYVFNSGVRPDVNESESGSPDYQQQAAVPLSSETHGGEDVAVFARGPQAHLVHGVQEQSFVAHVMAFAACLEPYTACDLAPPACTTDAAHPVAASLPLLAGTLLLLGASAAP

[8] = molecular target: Nucleotide-binding oligomerization domain-containing protein 1 (Homo sapiens, UniProt Q9Y239); assay: NOD1 signaling inhibitors, SAR follow-up, revised (AID 2333); format: functional
HEK293 = assay: cells; conditions: Homo sapiens;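 also: cells exposed to compound for 14 hours overnight before viability readout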
[9] = molecular target: Nucleotide-binding oligomerization domain-containing protein 2 (Homo sapiens, UniProt Q9HC29); assay: PubChem AID 2334; format: functional
Tumor necrosis factor = Tumor necrosis factor (Homo sapiens, UniProt P01375); assay: TNFa-triggered NF-kB activation inhibitors, SAR follow-up, cell-based, revised (AID 2337); format: functional
Tumor necrosis factor, sequence (P01375 whole entry): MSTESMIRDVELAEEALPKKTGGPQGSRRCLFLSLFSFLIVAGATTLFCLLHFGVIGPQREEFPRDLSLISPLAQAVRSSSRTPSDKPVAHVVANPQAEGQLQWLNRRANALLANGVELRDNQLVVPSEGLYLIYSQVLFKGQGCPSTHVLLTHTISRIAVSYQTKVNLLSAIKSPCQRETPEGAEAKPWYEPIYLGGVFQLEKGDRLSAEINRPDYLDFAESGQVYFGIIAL

[10] = molecular target: T2, Tyrosine-protein phosphatase non-receptor type 22 (Homo sapiens, UniProt Q9Y2R2); format: functional
T2 sequence (Q9Y2R2 whole entry): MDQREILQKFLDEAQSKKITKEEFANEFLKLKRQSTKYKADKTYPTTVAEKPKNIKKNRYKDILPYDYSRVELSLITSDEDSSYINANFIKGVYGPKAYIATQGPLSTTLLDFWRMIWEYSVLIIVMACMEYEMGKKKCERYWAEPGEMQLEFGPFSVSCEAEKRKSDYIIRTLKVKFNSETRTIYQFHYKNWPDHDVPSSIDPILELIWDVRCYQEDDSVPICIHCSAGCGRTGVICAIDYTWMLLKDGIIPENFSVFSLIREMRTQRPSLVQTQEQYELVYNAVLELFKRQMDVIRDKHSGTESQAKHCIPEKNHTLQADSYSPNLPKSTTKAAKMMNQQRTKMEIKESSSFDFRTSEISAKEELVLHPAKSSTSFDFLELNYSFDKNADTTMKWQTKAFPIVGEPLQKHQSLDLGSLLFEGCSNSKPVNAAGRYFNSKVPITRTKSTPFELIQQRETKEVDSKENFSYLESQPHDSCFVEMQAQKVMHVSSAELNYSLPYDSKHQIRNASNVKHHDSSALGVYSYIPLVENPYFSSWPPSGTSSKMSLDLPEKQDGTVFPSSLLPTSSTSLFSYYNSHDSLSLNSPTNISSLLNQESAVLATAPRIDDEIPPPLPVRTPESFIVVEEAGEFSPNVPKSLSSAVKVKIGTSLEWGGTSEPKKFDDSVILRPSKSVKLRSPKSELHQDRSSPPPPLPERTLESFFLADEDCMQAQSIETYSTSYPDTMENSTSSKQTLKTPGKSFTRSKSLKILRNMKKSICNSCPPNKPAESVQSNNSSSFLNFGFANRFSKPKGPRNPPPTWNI

[11] = molecular target: T3, Tyrosine-protein phosphatase non-receptor type 7 (Homo sapiens, UniProt P35236); format: functional
T3 sequence (P35236 whole entry): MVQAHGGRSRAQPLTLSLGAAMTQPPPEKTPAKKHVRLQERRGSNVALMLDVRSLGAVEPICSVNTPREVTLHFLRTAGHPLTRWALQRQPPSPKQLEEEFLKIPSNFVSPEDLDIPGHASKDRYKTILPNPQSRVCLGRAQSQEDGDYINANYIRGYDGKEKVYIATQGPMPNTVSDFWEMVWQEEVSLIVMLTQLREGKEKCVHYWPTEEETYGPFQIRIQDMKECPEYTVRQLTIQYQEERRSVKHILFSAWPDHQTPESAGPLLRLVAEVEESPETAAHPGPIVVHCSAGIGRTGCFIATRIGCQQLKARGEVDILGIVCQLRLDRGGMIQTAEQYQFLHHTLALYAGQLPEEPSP

[12] = molecular target: T2, Tyrosine-protein phosphatase non-receptor type 22; format: functional; remark: listed apart in the source
[13] = molecular target: T4, E3 ubiquitin-protein ligase XIAP (Homo sapiens, UniProt P98170); assay: SAR analysis of Antagonists of XIAP-Bir3 domain of IAP-family anti-apoptotic proteins. [Related pubchem assays (depositor defined):AID1018, AID1449, AID1513, AID1514, AID1638]
T4 sequence (P98170 whole entry, the tested form may be a part): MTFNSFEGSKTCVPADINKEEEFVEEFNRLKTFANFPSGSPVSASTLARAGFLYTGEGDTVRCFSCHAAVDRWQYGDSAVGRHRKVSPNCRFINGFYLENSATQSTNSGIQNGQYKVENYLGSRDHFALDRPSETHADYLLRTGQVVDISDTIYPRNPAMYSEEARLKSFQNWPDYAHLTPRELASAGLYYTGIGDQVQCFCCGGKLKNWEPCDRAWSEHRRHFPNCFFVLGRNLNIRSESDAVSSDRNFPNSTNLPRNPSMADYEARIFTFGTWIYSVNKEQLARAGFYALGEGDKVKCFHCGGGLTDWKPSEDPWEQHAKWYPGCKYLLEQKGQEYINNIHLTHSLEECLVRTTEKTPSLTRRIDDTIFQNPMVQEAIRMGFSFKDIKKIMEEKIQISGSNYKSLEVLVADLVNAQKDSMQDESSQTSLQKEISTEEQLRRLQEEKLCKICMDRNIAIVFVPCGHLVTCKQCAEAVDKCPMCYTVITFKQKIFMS

[14] = molecular target: T4, E3 ubiquitin-protein ligase XIAP; assay: SAR analysis of Antagonists of IAP-family anti-apoptotic proteins. [Related pubchem assays (depositor defined):AID1018, AID1449, AID1513, AID1514, AID1638]
[15] = molecular target: Signal transducer and activator of transcription 3 (Homo sapiens, UniProt P40763); assay: STAT3 inhibitors, late-stage profile, late-stage follow-up, cell-based, STAT1 panel, qPCR, cytotoxicity, panel member STAT3 Inhibition (AID 2078)
Signal transducer and activator of transcription 3, sequence (P40763 whole entry): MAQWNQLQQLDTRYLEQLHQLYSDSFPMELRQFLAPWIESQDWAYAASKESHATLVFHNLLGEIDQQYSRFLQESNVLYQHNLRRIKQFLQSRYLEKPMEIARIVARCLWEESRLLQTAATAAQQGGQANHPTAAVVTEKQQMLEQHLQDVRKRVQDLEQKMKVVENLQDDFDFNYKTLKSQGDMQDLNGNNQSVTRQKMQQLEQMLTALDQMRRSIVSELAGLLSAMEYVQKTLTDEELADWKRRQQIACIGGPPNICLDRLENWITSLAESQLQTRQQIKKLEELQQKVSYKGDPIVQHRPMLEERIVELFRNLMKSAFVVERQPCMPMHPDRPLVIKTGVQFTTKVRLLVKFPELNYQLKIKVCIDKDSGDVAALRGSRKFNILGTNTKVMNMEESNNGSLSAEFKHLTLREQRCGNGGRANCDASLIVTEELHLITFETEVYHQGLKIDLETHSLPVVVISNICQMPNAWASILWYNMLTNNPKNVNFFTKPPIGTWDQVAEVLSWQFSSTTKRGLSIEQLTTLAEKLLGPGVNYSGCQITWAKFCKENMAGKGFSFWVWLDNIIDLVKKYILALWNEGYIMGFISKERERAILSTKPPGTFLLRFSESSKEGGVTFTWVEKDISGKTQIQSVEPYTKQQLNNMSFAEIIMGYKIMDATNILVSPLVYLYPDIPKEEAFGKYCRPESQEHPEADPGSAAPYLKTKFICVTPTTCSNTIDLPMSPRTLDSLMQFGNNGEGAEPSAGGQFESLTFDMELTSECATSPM

[16] = molecular target: Signal transducer and activator of transcription 1-alpha/beta (Homo sapiens, UniProt P42224); assay: STAT3 inhibitors, late-stage profile, late-stage follow-up, cell-based, STAT1 panel, qPCR, cytotoxicity, panel member STAT1 Inhibition (AID 2078)
[17] = molecular target: T5, Kappa-type opioid receptor (Homo sapiens, UniProt P41145); assay: KOR agonist analogs, arrestin-GFP redistribution, SAR follow-up, imaging, image-based, set 3 (AID 488833); format: functional
T5 sequence (P41145 whole entry): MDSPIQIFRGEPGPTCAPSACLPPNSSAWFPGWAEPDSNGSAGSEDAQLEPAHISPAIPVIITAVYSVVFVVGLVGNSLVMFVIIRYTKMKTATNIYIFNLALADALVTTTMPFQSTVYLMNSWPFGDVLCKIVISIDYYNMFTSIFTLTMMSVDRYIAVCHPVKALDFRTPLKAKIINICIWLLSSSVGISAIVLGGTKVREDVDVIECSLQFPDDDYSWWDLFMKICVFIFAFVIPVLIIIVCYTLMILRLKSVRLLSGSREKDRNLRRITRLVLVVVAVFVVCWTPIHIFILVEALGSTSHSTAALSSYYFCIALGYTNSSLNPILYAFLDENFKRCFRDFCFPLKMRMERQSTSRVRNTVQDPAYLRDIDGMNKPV

Mu-type opioid receptor = Mu-type opioid receptor (Homo sapiens, UniProt P35372); assay: SAR Analysis of Agonists of the MOR Receptor using an Image-Based Assay - Set 3. [Related pubchem assays (depositor defined):AID1777, AID1785, AID1786, AID1966, AID2133, AID2136, AID2284, AID2285, AID2352]; format: functional
Mu-type opioid receptor, sequence (P35372 whole entry): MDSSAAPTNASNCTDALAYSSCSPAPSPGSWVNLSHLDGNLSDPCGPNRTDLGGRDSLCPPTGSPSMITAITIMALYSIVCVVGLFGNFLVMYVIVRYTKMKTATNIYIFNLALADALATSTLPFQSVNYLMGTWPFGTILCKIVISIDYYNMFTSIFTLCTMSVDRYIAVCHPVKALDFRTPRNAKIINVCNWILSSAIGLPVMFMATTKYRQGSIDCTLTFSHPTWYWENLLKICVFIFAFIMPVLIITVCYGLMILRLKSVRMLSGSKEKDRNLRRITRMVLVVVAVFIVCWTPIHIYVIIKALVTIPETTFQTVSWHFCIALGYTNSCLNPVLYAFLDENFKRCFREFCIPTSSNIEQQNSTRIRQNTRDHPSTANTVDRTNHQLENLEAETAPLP

[18] = molecular target: Delta-type opioid receptor (Homo sapiens, UniProt P41143); assay: SAR Analysis of Agonists of the DOR Receptor using an Image-Based Assay - Set 3. [Related pubchem assays (depositor defined):AID1777, AID1786]; format: functional
Delta-type opioid receptor, sequence (P41143 whole entry): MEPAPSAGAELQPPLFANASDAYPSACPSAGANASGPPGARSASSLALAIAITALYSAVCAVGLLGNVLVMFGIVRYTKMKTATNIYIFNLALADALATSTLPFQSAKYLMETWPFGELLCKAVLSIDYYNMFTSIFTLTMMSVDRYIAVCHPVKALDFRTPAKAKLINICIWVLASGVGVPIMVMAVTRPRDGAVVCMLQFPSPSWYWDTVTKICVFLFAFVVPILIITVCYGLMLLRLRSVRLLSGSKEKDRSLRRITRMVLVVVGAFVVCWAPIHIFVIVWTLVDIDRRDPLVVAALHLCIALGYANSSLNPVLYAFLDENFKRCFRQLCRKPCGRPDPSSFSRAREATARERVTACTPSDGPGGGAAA

[19] = molecular target: T5, Kappa-type opioid receptor; assay: SAR analysis of small molecule agonists of the kappa opioid receptor via a luminescent beta-arrestin assay - Set 3. [Related pubchem assays (depositor defined):AID1777, AID1785, AID1786, AID1966, AID2133, AID2136, AID2284, AID2500]; format: functional

SMILES: O=C(N/C(=C/c1cccc(Br)c1)c1nc(S)n[nH]1)c1ccccc1
IC50 [1]: > 66.2 µM (inactive)
EC50 [2]: > 112 µM (not active)
IC50 (CHO-K1): > 66.2 µM (inactive)
EC50 [3]: 28.9 µM (active)
IC50 [4]: 33.3 µM (inactive)
EC50 [5]: > 100 µM (active)
IC50 [6]: 16.8 µM (inactive)

EC50 [7]: > 100 µM (inactive)
SMILES: O=C(COc1ccc2ccccc2c1Br)N1CCCCC1

SMILES: Cc1ccc(C(=O)Nc2sc3c(c2C(=O)O)CCCC3)o1
IC50 [8]: > 20 µM (inactive)
IC50 (HEK293): > 20 µM (inactive)
IC50 [9]: > 20 µM (inactive)
IC50 (Tumor necrosis factor): > 20 µM (inactive)

IC50 [10]: > 79.4 µM (inactive)
IC50 [11]: > 79.4 µM (inactive)
IC50 [12]: > 79.4 µM (inactive)
SMILES: Cc1cc(C)nc(NC(=O)c2cc(-c3ccc(C)s3)nc3ccccc23)c1

IC50 [13]: 14.3 µM (active)
IC50 [14]: 2 µM (active)
SMILES: CN[C@@H](C)C(=O)N[C@H](C(=O)N1CCC[C@H]1C(=O)Nc1ccc2[nH]ccc2c1)C(C)C

SMILES: Cc1sc2ncnc(N3CCC(Cc4ccccc4)CC3)c2c1C
IC50 [15]: > 18.6 µM (inactive)
IC50 [16]: > 55.7 µM (inactive)

EC50 [17]: 20.6 µM (inactive)
EC50 (Mu-type opioid receptor): > 32 µM (inactive)
EC50 [18]: > 64 µM (inactive)
EC50 [19]: 7.89 µM (active)
SMILES: Fc1cc(F)cc(CSc2nnc(-c3ccccn3)n2Cc2ccco2)c1

Source: ChEMBL document CHEMBL1201862, “PubChem BioAssay data set” (2004)
